Test results published in the supplement of paper PMC4862054.

What was measured:
MDA-MB-453 [1] = experiment: normalised viability (% of control), CellTiter-Blue; higher = more viable cells (about 100 = DMSO control); conditions: incubation time: 72 h
Protocol: (§1)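 DSRT, CellTiter-Blue viability, 72 h incubation. Signal is normalised to DMSO and benzethonium chloride controls. Value is the normalised response at dose 6.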

HDQ-P1 [2] = experiment: as above; conditions: incubation time: 72 h
Protocol: as §1

DU-4475 [3] = experiment: as above; conditions: incubation time: 72 h
Protocol: as §1

CAL-85-1 [4] = experiment: as above; conditions: incubation time: 72 h
Protocol: as §1

CAL-148 [5] = experiment: as above; conditions: incubation time: 72 h
Protocol: as §1

CAL-51 [6] = experiment: as above; conditions: incubation time: 72 h
Protocol: as §1

CAL-120 [7] = experiment: as above; conditions: incubation time: 72 h
Protocol: (§2)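 DSRT, CellTiter-Blue viability, 72 h incubation. Signal is normalised to DMSO and benzethonium chloride controls. Value is the normalised response at dose 3.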

Hs578T [8] = experiment: as above; conditions: incubation time: 72 h
Protocol: as §2

MDA-MB-453 [9] = experiment: as above; conditions: incubation time: 72 h; remark: listed apart in the source
Protocol: as §2

MDA-MB-231 [10] = experiment: as above; conditions: incubation time: 72 h
Protocol: as §2

MFM-223 = experiment: as above; conditions: incubation time: 72 h
Protocol: as §2

DU-4475 [11] = experiment: as above; conditions: incubation time: 72 h; remark: listed apart in the source
Protocol: as §2

BT-549 [12] = experiment: as above; conditions: incubation time: 72 h
Protocol: as §2

CAL-148 [13] = experiment: as above; conditions: incubation time: 72 h; remark: listed apart in the source
Protocol: as §2

MDA-MB-468 [14] = experiment: as above; conditions: incubation time: 72 h
Protocol: as §2

MDA-MB-453 [15] = experiment: as above; conditions: incubation time: 72 h; remark: listed apart in the source
Protocol: (§3)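 DSRT, CellTiter-Blue viability, 72 h incubation. Signal is normalised to DMSO and benzethonium chloride controls. Value is the normalised response at dose 7.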

HDQ-P1 [16] = experiment: as above; conditions: incubation time: 72 h; remark: listed apart in the source
Protocol: as §3

DU-4475 [17] = experiment: as above; conditions: incubation time: 72 h; remark: listed apart in the source
Protocol: as §3

CAL-85-1 [18] = experiment: as above; conditions: incubation time: 72 h; remark: listed apart in the source
Protocol: as §3

CAL-148 [19] = experiment: as above; conditions: incubation time: 72 h; remark: listed apart in the source
Protocol: as §3

CAL-51 [20] = experiment: as above; conditions: incubation time: 72 h; remark: listed apart in the source
Protocol: as §3

MDA-MB-453 [21] = conditions: 72 h
In short: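 Breast cancer cell lines in 20 µl suspension were seeded onto 384-well plates pre-loaded with compound dissolved in 5 µl medium, then incubated 72 h. For viability, 2.5 µl CellTiter-Blue was added for 2 h at 37 °C and fluorescence read at 560/590 nm. Each plate was normalised to vehicle and a positive kill control and checked by Z'-factor. EC50 comes from the fitted percent-inhibition dose-response curve, censored at the highest concentration; rows with zero drug sensitivity score were dropped.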

MDA-MB-453 [22] = conditions: 72 h; remark: listed apart in the source
In short: (§4)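 Seeding of breast cancer cell lines (20 µl suspension) was done into 384-well plates pre-loaded with compound at 5 concentrations, 10-fold apart, covering a compound-specific 10,000-fold range. The plates were incubated for 72 h, read for CellTox Green fluorescence (485/520 nm), and then read for CellTiter-Glo luminescence after 10 min at room temperature. Every plate was normalised to 0.1 % DMSO and a positive kill control. Curve fitting gave the EC50, censored at the top concentration.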

MDA-MB-231 [23] = conditions: 72 h
In short: as §4

HCC1937 = conditions: 72 h
In short: as §4

CAL-85-1 [24] = conditions: 72 h
In short: as §4

BT-549 [25] = conditions: 72 h
In short: as §4

MCF-10A = conditions: 72 h
In short: as §4

BT-474 = conditions: 72 h
In short: as §4

CAL-51 [26] = conditions: 72 h
In short: as §4

SK-BR-3 = conditions: 72 h
In short: as §4

MDA-MB-468 [27] = conditions: 72 h
In short: as §4

MDA-MB-436 = conditions: 72 h
In short: as §4

CAL-120 [28] = conditions: 72 h
In short: as §4

Hs578T [29] = conditions: 72 h
In short: as §4

CCCCCCCCc1ccc(CCC(N)(CO)CO)cc1 [Fingolimod]
normalised viability (MDA-MB-453 [1]; 300 nM): 107%
normalised viability (HDQ-P1 [2]; 300 nM): 87.4%
normalised viability (DU-4475 [3]; 300 nM): 99.3%
normalised viability (CAL-85-1 [4]; 300 nM): 93.1%
normalised viability (CAL-148 [5]; 300 nM): 93.7%
normalised viability (CAL-51 [6]; 300 nM): 113%
normalised viability (CAL-120 [7]; 100 nM): 90.7%
normalised viability (Hs578T [8]; 100 nM): 97.1%
normalised viability (MDA-MB-453 [9]; 10 nM): 108%
normalised viability (MDA-MB-231 [10]; 100 nM): 89.3%
normalised viability (MFM-223; 100 nM): 98.6%
normalised viability (DU-4475 [11]; 10 nM): 113%
normalised viability (BT-549 [12]; 100 nM): 117%
normalised viability (CAL-148 [13]; 10 nM): 87.3%
normalised viability (MDA-MB-468 [14]; 100 nM): 101%
normalised viability (MDA-MB-453 [15]; 1000 nM): 103%
normalised viability (HDQ-P1 [16]; 1000 nM): 110%
normalised viability (DU-4475 [17]; 1000 nM): 109%
normalised viability (CAL-85-1 [18]; 1000 nM): 93.4%
normalised viability (CAL-148 [19]; 1000 nM): 96.3%
normalised viability (CAL-51 [20]; 1000 nM): 112%
EC50, CellTiter-Blue viability (MDA-MB-453 [21]): 5.4 µM
EC50, CellTiter-Glo (MDA-MB-453 [22]): 3.37 µM
EC50, CellTiter-Glo (MDA-MB-231 [23]): 2.8 µM
EC50, CellTiter-Glo (HCC1937): 3.9 µM
EC50, CellTiter-Glo (CAL-85-1 [24]): 3.34 µM
EC50, CellTiter-Glo (BT-549 [25]): 4.44 µM
EC50, CellTiter-Glo (MCF-10A): 3.35 µM
EC50, CellTiter-Glo (BT-474): 2.87 µM
EC50, CellTiter-Glo (CAL-51 [26]): 2.04 µM
EC50, CellTiter-Glo (SK-BR-3): 3.33 µM
EC50, CellTiter-Glo (MDA-MB-468 [27]): 3.05 µM
EC50, CellTiter-Glo (MDA-MB-436): 4.81 µM

Cc1cc2c(C(C)C)c(O)c(O)c(C=O)c2c(O)c1-c1c(C)cc2c(C(C)C)c(O)c(O)c(C=O)c2c1O [Gossypol]
normalised viability (MDA-MB-453 [1]; 3000 nM): 62.9%
normalised viability (HDQ-P1 [2]; 3000 nM): 105%
normalised viability (DU-4475 [3]; 3000 nM): 49.2%
normalised viability (CAL-85-1 [4]; 3000 nM): 80.2%
normalised viability (CAL-148 [5]; 3000 nM): 114%
normalised viability (CAL-51 [6]; 3000 nM): 96.6%
normalised viability (CAL-120 [7]; 1000 nM): 112%
normalised viability (Hs578T [8]; 1000 nM): 100%
normalised viability (MDA-MB-453 [9]; 100 nM): 110%
normalised viability (MDA-MB-231 [10]; 1000 nM): 93.6%
normalised viability (MFM-223; 1000 nM): 96.5%
normalised viability (DU-4475 [11]; 100 nM): 99.7%
normalised viability (BT-549 [12]; 1000 nM): 95%
normalised viability (CAL-148 [13]; 100 nM): 105%
normalised viability (MDA-MB-468 [14]; 1000 nM): 58.1%
normalised viability (MDA-MB-453 [15]; 10000 nM): 18.4%
normalised viability (HDQ-P1 [16]; 10000 nM): 52.5%
normalised viability (DU-4475 [17]; 10000 nM): 2.82%
normalised viability (CAL-85-1 [18]; 10000 nM): 45.8%
normalised viability (CAL-148 [19]; 10000 nM): 70.7%
normalised viability (CAL-51 [20]; 10000 nM): 60.5%

CC(C)c1c(C(=O)Nc2ccccc2)c(-c2ccccc2)c(-c2ccc(F)cc2)n1CC[C@@H](O)C[C@@H](O)CC(=O)O [Atorvastatin]
EC50, CellTiter-Glo (CAL-120 [28]): 1.84 µM
EC50, CellTiter-Glo (Hs578T [29]): 7.69 µM
EC50, CellTiter-Glo (MDA-MB-453 [22]): > 10 µM
EC50, CellTiter-Glo (MDA-MB-231 [23]): 1.27 µM
EC50, CellTiter-Glo (HCC1937): 2.37 µM
EC50, CellTiter-Glo (CAL-85-1 [24]): 1.9 µM
EC50, CellTiter-Glo (MCF-10A): 2.28 µM
EC50, CellTiter-Glo (BT-474): 1.75 µM
EC50, CellTiter-Glo (CAL-51 [26]): 2.21 µM
EC50, CellTiter-Glo (MDA-MB-468 [27]): 4.39 µM

O=C(O)CCCc1ccc(N(CCCl)CCCl)cc1 [Chlorambucil]
normalised viability (MDA-MB-453 [1]; 300 nM): 103%
normalised viability (HDQ-P1 [2]; 300 nM): 85.8%
normalised viability (DU-4475 [3]; 300 nM): 90.9%
normalised viability (CAL-85-1 [4]; 300 nM): 105%
normalised viability (CAL-148 [5]; 300 nM): 110%
normalised viability (CAL-51 [6]; 300 nM): 104%
normalised viability (CAL-120 [7]; 100 nM): 109%
normalised viability (Hs578T [8]; 100 nM): 106%
normalised viability (MDA-MB-453 [9]; 10 nM): 106%
normalised viability (MDA-MB-231 [10]; 100 nM): 103%
normalised viability (MFM-223; 100 nM): 95.5%
normalised viability (DU-4475 [11]; 10 nM): 109%
normalised viability (BT-549 [12]; 100 nM): 100%
normalised viability (CAL-148 [13]; 10 nM): 100%
normalised viability (MDA-MB-468 [14]; 100 nM): 99.8%
normalised viability (MDA-MB-453 [15]; 1000 nM): 113%
normalised viability (HDQ-P1 [16]; 1000 nM): 98.9%
normalised viability (DU-4475 [17]; 1000 nM): 103%
normalised viability (CAL-85-1 [18]; 1000 nM): 97.5%
normalised viability (CAL-148 [19]; 1000 nM): 105%
normalised viability (CAL-51 [20]; 1000 nM): 101%
